Data taken from article PMC9656319, “Pharmacokinetics and Tissue Distribution of Coumarins from Tagetes lucida in an LPS-Induced Neuroinflammation Model” (Plants, 2022).

Columns and labels:
[1] = Pharmacokinetic study in plasma after oral hexanic extract of Tagetes lucida, healthy and LPS-damaged mice; type: in vivo, ICR mice; settings: for amount of drug available in the plasma, LPS mice compared to healthy subjects / Cmax / AUC(0-inf) / MRT / Tmax / half-life / AUC(0-t) / Cl/F: 10 mg/kg oral hexanic extract; for amount of drug available in the plasma, LPS mice compared to healthy subjects: concentration-time profiles (Figure 3); for Cmax / AUC(0-inf) / MRT / Tmax / half-life / AUC(0-t): ICR, mouse, po, 10 mg/kg; for Cmax: non-compartmental; for Cmax / AUC(0-inf) / MRT / Tmax / half-life / AUC(0-t) / Cl/F: mean ± SEM (n = 5); for AUC(0-t): to 6 h
Method: The optimized HPLC-validated method for the quantification of coumarins present in the hexane extract of T. lucida was used to evaluate the concentration profiles over time in the plasma, brain, kidney, and spleen biological matrices after an oral administration of 10 mg/kg of the extract.
Blood samples were obtained from the retro-orbital sinus of mice and collected in heparinized tubes. Plasma was separated by centrifugation at 3500 rpm for 5 min and stored in new Eppendorf tubes at −70 °C, until further processing.
One hundred microliters of plasma and organs samples, spiked with calibration and QC concentration or samples from the pharmacokinetic study, were mixed with 300 µL of acetonitrile containing the IS at 10 µg/mL for protein precipitation, and vortexed for 3 min. Then, 200 µL of dichloromethane were added, for liquid–liquid extraction of the bioactive compounds, and vortexed for 5 min. The mixture was centrifuged at 14,000 rpm for 10 min, and the extracted organic layers were placed in new tubes, until completely dry at room temperature. For quantitative analysis, samples were resuspended in 100 µL of methanol, transferred to sampling vials, and injected into the chromatographic system, described below.
A pharmacokinetic study was carried out in sixty mice, divided in six subgroups, according to sample collection times. An acute inflammation process by the intraperitoneal (i.p.) administration of LPS at 2 mg/kg was induced in half of the mice per group, while the other half received an i.p. injection of saline solution. Ten min after the damage was induced, the mice were administered with an oral dose of 10 mg/kg of the bioactive fraction dissolved in a 1% Tween-20 aqueous solution. Blood and tissue samples were obtained and processed at 0, 0.25, 0.75, 1.5, 2, 4, and 6 h post-dosing, as indicated in the “Samples collection” and “Plasma and tissue samples processing” sections.
Pharmacokinetic parameters of PE, SC, DF, HR, and PU in plasma were calculated by PKSolver software.

[2] = Stability of the analytes in spiked plasma, brain, kidney and spleen matrices (autosampler, long-term, freeze-thaw); type: physicochemical, mice; settings: for Stability Autosampler RE (%): processed samples in autosampler vials 24 h room temperature; for Stability Freeze-Thaw RE (%): three cycles (−4 °C to 25 °C); for Stability Long-Term RE (%): −70 °C for 30 days
Method: The stability of the compounds obtained from each enriched matrices at the QC concentrations was evaluated under different conditions that covered the processing, handling, and storage phases that could be developed throughout the study.
Individual stock solutions of PE, SC, DF, HR, PU, and rutin (IS) were prepared separately in methanol (1 mg/mL) and stored at −4 °C until use. From the stocks, a working solution in methanol was prepared at a concentration of 200 µg/mL of each coumarin. Blank plasma or organs supernatant samples (80 µL) were spiked with 20 µL of serial dilutions of working solution to obtain calibration curves ranging between 0.156, 0.312, 0.625, 1.25, 2.5, 5, 10, 20, and 40 µg/mL of each coumarin. Quality control (QC) samples were prepared at three levels of 0.3 (low), 3 (medium), and 30 (high) µg/mL for each coumarin.
The stability of the analytes in plasma, brain, kidneys, and spleen was evaluated by the analyzed concentrations of QC subjected to three different conditions. Short-term stability was determined by analysis of samples processed in the autosampler vials at 24 h at room temperature. Long-term stability was tested on samples stored at −70 °C for 30 days. Freeze-thaw stability was determined after three cycles (−4 °C to 25 °C) on three consecutive days.

[3] = plasma, LPS-damaged ICR mice (LPS 2 mg/kg i.p.)

COc1ccc2ccc(=O)oc2c1 [HR, herniarin]
amount of drug available in the plasma, LPS mice compared to healthy subjects [1]: three-fold higher
Cmax [1, 3]: 1.48 ± 0.19 µg/mL
AUC(0-inf) ([1]; plasma, LPS-damaged ICR mice): 3.21 ± 0.38 µg·h/mL
MRT ([1]; plasma, LPS-damaged ICR mice): 2.77 ± 0.25 h
Tmax ([1]; plasma, LPS-damaged ICR mice): 0.25 h
half-life ([1]; plasma, LPS-damaged ICR mice): 1.49 ± 0.35 h
AUC(0-t) ([1]; plasma, LPS-damaged ICR mice): 2.95 ± 0.28 µg·h/mL
AUC(0-inf) ([1]; plasma, healthy ICR mice): 1.03 ± 0.14 µg·h/mL
MRT ([1]; plasma, healthy ICR mice): 2.77 ± 0.35 h
Tmax ([1]; plasma, healthy ICR mice): 0.95 ± 0.35 h
half-life ([1]; plasma, healthy ICR mice): 1.66 ± 0.46 h
Cmax ([1]; plasma, healthy ICR mice): 0.62 ± 0.34 µg/mL
AUC(0-t) ([1]; plasma, healthy ICR mice): 0.92 ± 0.12 µg·h/mL
Cl/F ([1]; plasma, LPS-damaged ICR mice): 32.50 ± 2.91 (mg/kg)/(μg/mL)/h
Cl/F ([1]; plasma, healthy ICR mice): 103.7 ± 13.0 (mg/kg)/(μg/mL)/h
Stability Autosampler RE (%) ([2]; brain, nominal 0.3 µg/mL): -3.47%
Stability Freeze-Thaw RE (%) ([2]; brain, nominal 0.3 µg/mL): -0.69%
Stability Long-Term RE (%) ([2]; brain, nominal 0.3 µg/mL): -0.21%
Stability Autosampler RE (%) ([2]; brain, nominal 3.0 µg/mL): 2.31%
Stability Freeze-Thaw RE (%) ([2]; brain, nominal 3.0 µg/mL): -5.14%
Stability Long-Term RE (%) ([2]; brain, nominal 3.0 µg/mL): -0.98%
Stability Autosampler RE (%) ([2]; brain, nominal 30.0 µg/mL): 3.86%
Stability Freeze-Thaw RE (%) ([2]; brain, nominal 30.0 µg/mL): -1.02%
Stability Long-Term RE (%) ([2]; brain, nominal 30.0 µg/mL): -4.72%
Stability Autosampler RE (%) ([2]; kidney, nominal 0.3 µg/mL): 8.17%
Stability Freeze-Thaw RE (%) ([2]; kidney, nominal 0.3 µg/mL): 2.03%
Stability Long-Term RE (%) ([2]; kidney, nominal 0.3 µg/mL): 5.12%
Stability Autosampler RE (%) ([2]; kidney, nominal 3.0 µg/mL): 2.81%
Stability Freeze-Thaw RE (%) ([2]; kidney, nominal 3.0 µg/mL): -0.62%
Stability Long-Term RE (%) ([2]; kidney, nominal 3.0 µg/mL): 3.06%
Stability Autosampler RE (%) ([2]; kidney, nominal 30.0 µg/mL): 1.35%
Stability Freeze-Thaw RE (%) ([2]; kidney, nominal 30.0 µg/mL): 2.25%
Stability Long-Term RE (%) ([2]; kidney, nominal 30.0 µg/mL): 3.32%
Stability Autosampler RE (%) ([2]; plasma, nominal 0.3 µg/mL): 8.34%
Stability Freeze-Thaw RE (%) ([2]; plasma, nominal 0.3 µg/mL): 0.67%
Stability Long-Term RE (%) ([2]; plasma, nominal 0.3 µg/mL): 9.39%
Stability Autosampler RE (%) ([2]; plasma, nominal 3.0 µg/mL): 12.83%
Stability Freeze-Thaw RE (%) ([2]; plasma, nominal 3.0 µg/mL): -7.90%
Stability Long-Term RE (%) ([2]; plasma, nominal 3.0 µg/mL): 3.99%
Stability Autosampler RE (%) ([2]; plasma, nominal 30.0 µg/mL): 14.32%
Stability Freeze-Thaw RE (%) ([2]; plasma, nominal 30.0 µg/mL): -5.47%
Stability Long-Term RE (%) ([2]; plasma, nominal 30.0 µg/mL): 3.55%
Stability Autosampler RE (%) ([2]; spleen, nominal 0.3 µg/mL): 5.46%
Stability Freeze-Thaw RE (%) ([2]; spleen, nominal 0.3 µg/mL): -0.63%
Stability Long-Term RE (%) ([2]; spleen, nominal 0.3 µg/mL): 0.22%
Stability Autosampler RE (%) ([2]; spleen, nominal 3.0 µg/mL): -0.16%
Stability Freeze-Thaw RE (%) ([2]; spleen, nominal 3.0 µg/mL): 4.87%
Stability Long-Term RE (%) ([2]; spleen, nominal 3.0 µg/mL): 7.44%
Stability Autosampler RE (%) ([2]; spleen, nominal 30.0 µg/mL): 1.18%
Stability Freeze-Thaw RE (%) ([2]; spleen, nominal 30.0 µg/mL): 0.49%
Stability Long-Term RE (%) ([2]; spleen, nominal 30.0 µg/mL): 2.92%

COc1cc2ccc(=O)oc2c(OC)c1OC [DF, dimethylfraxetin]
amount of drug available in the plasma, LPS mice compared to healthy subjects [1]: three-fold higher
Cmax [1, 3]: 1.82 ± 0.27 µg/mL
AUC(0-inf) ([1]; plasma, LPS-damaged ICR mice): 3.61 ± 0.4 µg·h/mL
MRT ([1]; plasma, LPS-damaged ICR mice): 2.72 ± 0.3 h
Tmax ([1]; plasma, LPS-damaged ICR mice): 0.6 ± 0.24 h
half-life ([1]; plasma, LPS-damaged ICR mice): 1.5 ± 0.37 h
AUC(0-t) ([1]; plasma, LPS-damaged ICR mice): 3.25 ± 0.31 µg·h/mL
AUC(0-inf) ([1]; plasma, healthy ICR mice): 1.71 ± 0.19 µg·h/mL
MRT ([1]; plasma, healthy ICR mice): 2.35 ± 0.33 h
Tmax ([1]; plasma, healthy ICR mice): 1.2 ± 0.31 h
half-life ([1]; plasma, healthy ICR mice): 0.98 ± 0.27 h
Cmax ([1]; plasma, healthy ICR mice): 0.58 ± 0.02 µg/mL
AUC(0-t) ([1]; plasma, healthy ICR mice): 1.64 ± 0.17 µg·h/mL
pharmacokinetic characteristics in words ([1]; LPS-treated mice, plasma, Figure 3b, 3c): fast distribution and subsequent elimination
Cl/F ([1]; plasma, LPS-damaged ICR mice): 28.81 ± 2.51 (mg/kg)/(μg/mL)/h
increase in the Cmax in the damaged animals versus healthy ([1]; plasma, LPS-damaged vs healthy mice): up to three times more
Cl/F ([1]; plasma, healthy ICR mice): 62.45 ± 9.38 (mg/kg)/(μg/mL)/h
Stability Autosampler RE (%) ([2]; brain, nominal 0.3 µg/mL): -4.07%
Stability Freeze-Thaw RE (%) ([2]; brain, nominal 0.3 µg/mL): 0.03%
Stability Long-Term RE (%) ([2]; brain, nominal 0.3 µg/mL): -0.62%
Stability Autosampler RE (%) ([2]; brain, nominal 3.0 µg/mL): 3.73%
Stability Freeze-Thaw RE (%) ([2]; brain, nominal 3.0 µg/mL): -6.72%
Stability Long-Term RE (%) ([2]; brain, nominal 3.0 µg/mL): 0.46%
Stability Autosampler RE (%) ([2]; brain, nominal 30.0 µg/mL): 3.21%
Stability Freeze-Thaw RE (%) ([2]; brain, nominal 30.0 µg/mL): -0.35%
Stability Long-Term RE (%) ([2]; brain, nominal 30.0 µg/mL): -4.35%
Stability Autosampler RE (%) ([2]; kidney, nominal 0.3 µg/mL): 5.83%
Stability Freeze-Thaw RE (%) ([2]; kidney, nominal 0.3 µg/mL): -0.65%
Stability Long-Term RE (%) ([2]; kidney, nominal 0.3 µg/mL): 5.19%
Stability Autosampler RE (%) ([2]; kidney, nominal 3.0 µg/mL): 4.79%
Stability Freeze-Thaw RE (%) ([2]; kidney, nominal 3.0 µg/mL): 0.82%
Stability Long-Term RE (%) ([2]; kidney, nominal 3.0 µg/mL): 8.12%
Stability Autosampler RE (%) ([2]; kidney, nominal 30.0 µg/mL): 0.66%
Stability Freeze-Thaw RE (%) ([2]; kidney, nominal 30.0 µg/mL): 0.47%
Stability Long-Term RE (%) ([2]; kidney, nominal 30.0 µg/mL): 5.67%
Stability Autosampler RE (%) ([2]; plasma, nominal 0.3 µg/mL): 2.59%
Stability Freeze-Thaw RE (%) ([2]; plasma, nominal 0.3 µg/mL): -12.33%
Stability Long-Term RE (%) ([2]; plasma, nominal 0.3 µg/mL): -6.74%
Stability Autosampler RE (%) ([2]; plasma, nominal 3.0 µg/mL): -1.38%
Stability Freeze-Thaw RE (%) ([2]; plasma, nominal 3.0 µg/mL): 2.47%
Stability Long-Term RE (%) ([2]; plasma, nominal 3.0 µg/mL): -3.13%
Stability Autosampler RE (%) ([2]; plasma, nominal 30.0 µg/mL): 4.21%
Stability Freeze-Thaw RE (%) ([2]; plasma, nominal 30.0 µg/mL): 0.49%
Stability Long-Term RE (%) ([2]; plasma, nominal 30.0 µg/mL): -3.40%
Stability Autosampler RE (%) ([2]; spleen, nominal 0.3 µg/mL): 6.88%
Stability Freeze-Thaw RE (%) ([2]; spleen, nominal 0.3 µg/mL): -0.67%
Stability Long-Term RE (%) ([2]; spleen, nominal 0.3 µg/mL): 5.43%
Stability Autosampler RE (%) ([2]; spleen, nominal 3.0 µg/mL): -1.66%
Stability Freeze-Thaw RE (%) ([2]; spleen, nominal 3.0 µg/mL): 0.49%
Stability Long-Term RE (%) ([2]; spleen, nominal 3.0 µg/mL): 7.09%
Stability Autosampler RE (%) ([2]; spleen, nominal 30.0 µg/mL): 1.50%
Stability Freeze-Thaw RE (%) ([2]; spleen, nominal 30.0 µg/mL): -1.06%
Stability Long-Term RE (%) ([2]; spleen, nominal 30.0 µg/mL): 7.60%
